Laboratory results as given in patent US20220348910A1, “METHODS AND COMPOSITIONS FOR MULTIPLEX GENE EDITING” (THE GOVERNING COUNCIL OF THE UNIVERSITY OF TORONTO, priority 2019, published 2022).

Test system: HPRT1
Assay: Pooled positive selection hgRNA screen for resistance to 6-thioguanine
Format: cell-based, human
Conditions: 6-TG treated cells
Procedure: Lentiviral-based positive selection pooled hgRNA screens were performed, and the human HPRT1 and TK1 genes were targeted using guide pairs that either target within exonic regions, which are expected to result in gene knockout, or intronic loci flanking constitutive exons in these genes, which are expected to result in exon deletion (FIG. 1D). All of the exon-flanking hgRNAs in the library were designed to introduce double-strand DNA breaks at intronic sites that are at least 100 bps distal from splice sites flanking the target exons.
At T18 15 million cells were collected for genomic DNA extraction, and hgRNA expression cassettes were amplified and subjected to high-throughput sequencing as described below.

Structure (SMILES): Nc1nc2nc[nH]c2c(=S)[nH]1 [6-TG, 6-thioguanine]
- library constructs undetectable when cells were treated with 6-TG: 95.8%
